Non-standard residues stand in square brackets, D forms with d. Residues, ends and D or L forms follow the SMILES beside them. Bounds are passed on as bounds.

One assay has as its system GH Release. Briefly: in vivo growth hormone bioassay in pentobarbital-anesthetized male rats, s.c. injection, plasma GH by RIA. The note with it: for INHIBITION POTENCY GH in vivo: Table C, relative potency, SS-14 = 100, based on 4-point assays. Further details: species or system rat. As for the experimental part:
The in vivo growth hormone bioassay utilized is as follows:
Male Charles River CD rats (200-300 g.) with free access to food and water were anesthetized with sodium pentobarbital (60 mg.kg intraperitoneally). Thirty minutes later saline or octapeptide is injected subcutaneously and blood samples are drawn from the jugular vein 15 minutes after subcutaneous injection. The plasma is separated and assayed for growth hormone by RIA as described above. This in vivo bioassay is a modification of the methods used by Schally, et al., "Hypothalamic Peptide Hormones: Basic and Clinical Studies", "Hormonal Proteins and Peptides", C. H. Li, ed. Academic Press, N.Y. 7: 1-54, 1978; Meyers, C. A., Murphy, W. A., Redding T. W., Coy, D. H. and Schally, A. V., Proc. Natl. Acad. Sci., USA 77: 6171, 1980; Murphy, W. A., Meyers, C. A. and Coy, D. H., Endoc. 109: 491, (1981) as well as Veber et al., Pro. Natl. Acad. Sci., USA 75: 2636-2640 (1978). For some analogs, doses as low as 0.02 μg/100 g. or even 0.005 μg/ 100 g. are active. The potency of the octapeptides of this invention relative to somatostatin is illustrated in Tables A, B and C. Single dose assays are shown in Table A and 4 point assays at 2 dose levels in Tables B and C.

In the next assay the test system is insulin release. In words: inhibition of insulin release in vivo in fasted male rats, i.v. injection, portal plasma insulin by RIA. Further details: species or system rat. The note with it: Table C; relative potency, SS-14 = 100; based on 4-point assays. On the procedure: The octapeptides of the present invention are also compared to synthetic somatostatin for their ability to inhibit the release of insulin and glucagon in vivo in male rats (CD strain, Charles River) weighing 250-300 g. The rats are kept in controlled temperature (24° C.) and light (0500-1900 h) conditions for 1 week before the assay. Rats are fasted 27-30 hours with free access to water then anesthetized with Nembutal (6 mg/100 g. intraperitoneally). After 30 minutes, saline or test peptide is injected into the jugular vein and blood is collected 5 minutes later from the hepatic portal vein then transferred into chilled tubes containing EDTA (2.5 mg/ml.) and Trasylol (500 K.I.U./ml.). Plasma is separated and stored at -20° C. until assayed for insulin and glucagon. Plasma insulin is determined by double antibody radioimmunoassay using a kit from Cambridge Medical Diagnostics.

For a further assay, the system named is growth hormone release. Briefly: time course of growth hormone suppression in vivo in Nembutal-anesthetized male rats. The note with it: 2 μg/100 g. Details: species or system rat. As for the experimental part: In order to determine the time course of the compounds of this invention, male rats are anesthetized with Nembutal and injected with saline or the test octapeptide as in the growth hormone potency assay above. Blood is collected from the jugular vein 15, 30, 45, 60, 90, 120 and 180 minutes post subcutaneous above. This time-course experiment for octapeptides on growth hormone release in vivo a significant suppression of plasma growth hormone. […] At the dose of 2 μg/100 g., the inhibitory effect of somatostatin on growth hormone release is no longer observed after 30 minutes (FIG. 1).

Assay [1] relates to pentagastrin or desglugastrin-induced gastric acid output. In words: gastric acid secretion in dogs with gastric fistulae. Format: in vivo. On the procedure:
In order to compare some of the biological actions of the octapeptides of the present invention and somatostatin on gastrointestinal secretions and on the release of some gastrointestinal homones in dogs, the following procedures are used:
Mongrel dogs weighing 15-20 kg. are prepared surgical with gastric (GF) and pancreatic fistulae (PF) as described by Konturek, et al., (1976) 225, 497 and Konturek, et al., Gastroenterology, (1976) 58, 1-6. Secretions from the GF and PF are collected continuously at 15 minute intervals. Hydrogen ion and pepsin concentrations in the […] are also measured in 15- or 30-minute outputs. (Konturek, et al., J. Physiol. Lond., 255, 497 (1976) and Konturek, et al., (1976) supra.). Basal secretion is first collected for two 15 minute periods, and then the secretory stimulant for gastric and/or pancreatic secretion is administered for 31/2 hours. When the secretory rate reaches a subtained plateau, the octapeptides or somatostatin are given in standard doses (2-μg/Kg/hr.). i.v. for a one hour period. […]
In tests on gastric stimulation, pentagastrin or desglugastrin (glutaroyl-Ala-Tyr-Gly-Trp-Leu-Asp-Phe-NH2) is infused i.v. in a constant dose (3 μg/kg/hr.), shown previously to elicit near maximal gastric acid secretion. Gastric secretion is measured and acid content determined by titration with 0.1N NaOH. […]

Assay [2] concerns CPZ and Morphine stimulated GH secretion. Briefly: potency #3, time course of CPZ and Morphine stimulated GH secretion. The note with it: injected dose 2.0. Format: in vivo. The text has this: *Based on time course of CPZ and Morphine stimulated GH secretion.
Assay [3] has as its system well differentiated (WD), chemically induced ductal adenocarcinoma. The note with it: given twice daily or as controlled-release microcapsules; pancreatic cancer model not given; cited from earlier work.

For the compound `CC(=O)N[C@H](Cc1ccccc1)C(=O)N[C@@H](CS)C(=O)N[C@@H](Cc1ccccc1)C(=O)N[C@H](Cc1c[nH]c2ccccc12)C(=O)N[C@@H](CCCCN)C(=O)N[C@H](C(=O)N[C@@H](CS)C(=O)N1CCC[C@H]1C(N)=O)[C@@H](C)O` [RC-76-2H, AcD-PheCysPheD-TrpLysThrCysProNH2] (Ac-[dF]CF[dW]KTCP-NH2), the “INHIBITION POTENCY GH in vivo” value with GH Release is given as 1070.
As for `CC(=O)N[C@@H](Cc1ccccc1)C(=O)N[C@@H](CS)C(=O)N[C@@H](Cc1ccccc1)C(=O)N[C@H](Cc1c[nH]c2ccccc12)C(=O)N[C@@H](CCCCN)C(=O)N[C@H](C(=O)N[C@@H](CS)C(=O)N[C@H](C(N)=O)[C@@H](C)O)[C@@H](C)O` [RC-101-I-2H, AcPheCysPheD-TrpLysThrCysThrNH2], the “INHIBITION POTENCY GH in vivo” value in the assay with GH Release is 11320.
Same read-out and setting: to `CC(=O)N[C@H](Cc1ccccc1)C(=O)N[C@@H](CS)C(=O)N[C@@H](Cc1ccccc1)C(=O)N[C@H](Cc1c[nH]c2ccccc12)C(=O)N[C@@H](CCCCN)C(=O)N[C@H](C(=O)N[C@@H](CS)C(=O)N[C@H](C(N)=O)[C@@H](C)O)[C@@H](C)O` [RC-101-II-2H, AcD-PheCysPheD-TrpLysThrCysThrNH2] belongs 12900; to `CC(=O)N[C@@H](Cc1ccccc1)C(=O)N[C@H]1CSSC[C@@H](C(=O)N[C@H](C(N)=O)[C@@H](C)O)NC(=O)[C@H]([C@@H](C)O)NC(=O)[C@H](CCCCN)NC(=O)[C@@H](Cc2c[nH]c3ccccc23)NC(=O)[C@H](Cc2ccccc2)NC1=O` [RC-101-I], 13560; to `CC(=O)N[C@H](Cc1ccccc1)C(=O)N[C@H]1CSSC[C@@H](C(=O)N[C@H](C(N)=O)[C@@H](C)O)NC(=O)[C@H](C(C)C)NC(=O)[C@H](CCCCN)NC(=O)[C@@H](Cc2c[nH]c3ccccc23)NC(=O)[C@H](Cc2ccc(O)cc2)NC1=O` [RC-161], 5520.
`C[C@H](N)C(=O)NCC(=O)N[C@H]1CSSC[C@@H](C(=O)O)NC(=O)[C@H](CO)NC(=O)[C@H]([C@@H](C)O)NC(=O)[C@H](Cc2ccccc2)NC(=O)[C@H]([C@@H](C)O)NC(=O)[C@H](CCCCN)NC(=O)[C@H](Cc2c[nH]c3ccccc23)NC(=O)[C@H](Cc2ccccc2)NC(=O)[C@H](Cc2ccccc2)NC(=O)[C@H](CC(N)=O)NC(=O)[C@H](CCCCN)NC1=O` [SS-14, Somatostatin]: the “GH Level 15'” value in the assay on GH Release (Potency assay #1 (89th experiment), 0.4 μg/100 g B.W., control 116 ± 10) is 88 ± 22 ng/mL; in the assay with GH Release (Potency assay #1, 1.6 μg/100 g B.W., control 116 ± 10) it was 53 ± 10 ng/mL; with GH Release (Potency assay #2 (108th experiment), 0.2 μg/100 g B.W., control 211 ± 56), 171 ± 26 ng/mL; in the assay with GH Release (Potency assay #2, 0.8 μg/100 g B.W., control 211 ± 56) it was 91 ± 12 ng/mL. For the same compound, the “GH-Level mean ± SEM” value in the assay on GH Release (Table A single dose assay, 2.00 μg/100 g B.W. s.c., saline control 374 ± 69) amounted to 50 ± 12 ng/mL; in the assay on GH Release (Table A single dose assay, 2.00 μg/100 g B.W. s.c., saline control 754 ± 155) it was 95 ± 31 ng/mL; with GH Release (Table B four-point assay, 0.4 μg/100 g B.W., saline control 277 ± 166), 86 ± 16 ng/mL; in the assay on GH Release (Table B four-point assay, 1.6 μg/100 g B.W., saline control 277 ± 166) it was 47 ± 17 ng/mL. Besides, the “INHIBITION POTENCY GH in vivo” value with GH Release was 100. In the assay with insulin release, the “INHIBITION POTENCY INSULIN in vivo” value is listed as 100. In the assay on growth hormone release, the “time after which inhibitory effect on growth hormone release is no longer observed” value was ≤ 30 min. Also, in assay [1] (dogs with gastric fistulae), the “duration of gastric acid inhibition after infusion” value was “short-lived”. Also, the “inhibition of gastric acid output from the gastric fistula” value in assay [1] (i.v. infusion for one hour, pentagastrin or desglugastrin stimulation) was “strongly inhibit”. Moreover, the “GH-RH LEVEL” value in assay [2] is listed as 0.1032.
Consider D-Trp-6-LH-RH, for which the “tumor weight and volume” value in assay [3] is “significantly decreased”.
